{"source": "patent US20250161279A1", "about": "“METHODS OF TREATING MULTIPLE MYELOMA USING BCL-2 INHIBITOR” (BeiGene Switzerland GmbH, priority 2022, published 2025)", "key": {"[1]": {"tested_on": "KMS-12-PE human MM subcutaneous xenograft model", "test": "KMS-12-PE xenograft model study: tumor growth", "type": "in vivo, NCG mice", "conditions": "for Tumor Volume (mm^3) (Mean ± SEM) Day 17: 17 days", "procedure": "KMS-12-PE, a human MM cell line, was obtained from Deutsche Sammlung von Mikroorganismen und Zellkulturen (DSMZ, Catalog: ACC 606). KMS-12-PE cells were cultured in RPMI 1640 complete medium, supplemented with 20% (v/v) fetal bovine serum, and 100 μg/mL of penicillin and streptomycin. In this study, cells were used within 10 passages of recovery from liquid nitrogen. KMS-12-PE cells were maintained as suspension cultures at 37° C. in a 5% CO2 atmosphere, being passaged twice weekly. […] Resuspended cells were placed on ice prior to inoculation. The right front flank of each mouse was cleaned with 75% ethanol prior to cell inoculation. Each animal was injected subcutaneously with 3×10^7 cells in 200 μL of cells suspension in the right front flank via a 1 mL LS 25GA syringe. […] Body weight was assessed immediately before dosing and volume dosed was adjusted accordingly. Tumor volume was measured twice weekly in two dimensions using a caliper (measurable since day 4 post treatment in this study). Body weights were recorded twice weekly. One individual was responsible for tumor measurement for the duration of the study. Mice were also monitored daily for clinical signs of toxicity. Mice were euthanized using carbon dioxide at the end of the study. The two-dimension diameters of tumor were determined using a caliper. Tumor volume was calculated using the formula: […] Tumor growth inhibition (TGI) was calculated using the following formula: […] Where, treated t=treated tumor volume at time t, treated t0=treated tumor volume at time 0, vehicle t=vehicle tumor volume at time t, vehicle t0=vehicle tumor volume at time 0. The tumor volume on day 17 post treatment was analyzed using ANOVA method on logarithmic scale in SAS Enterprise Guide version: 7.15 HF3. The following comparisons were made among treatment groups, […] The combination therapy was compared to corresponding single agents. […] The EOHSA tests were adjusted by Holm's multiple comparison test. #p<0.05, ####p<0.0001."}, "[2]": {"test": "PK analysis of Compound 1 in KMS-12-PE xenograft mice (plasma, day 14)", "type": "in vivo, NCG mice", "conditions": "for AUC0-24 h of Compound 1, Day 14 / Cmax of Compound 1, Day 14: plasma; for Individual animal's plasma concentration of Compound 1, 0 h post treatment / Individual animal's plasma concentration of Compound 1, 0.5 h post treatment / Individual animal's plasma concentration of Compound 1, 2 h post treatment / Individual animal's plasma concentration of Compound 1, 8 h post treatment / Individual animal's plasma concentration of Compound 1, 24 h post treatment: day 14, steady state", "procedure": "On day 14 post treatment, blood samples (about 100 μL per mouse) were collected from the retro-orbital sinus under isoflurane/oxygen anesthesia at predose 0, 0.5, 2, 8, and 24 hours after dosing of Compound 1 (3 mice per time point, every mouse was used for 2 or 3 time points). The blood was transferred to the EDTA-K2 anticoagulation tube, and the plasma was collected by centrifugation at 5,600 rpm for 7 min and was kept frozen in −80° C. until analysis.\nFor PK analysis, maximum plasma concentration (Cmax) and time to peak (Tmax) were got directly from the plasma concentration versus time graphs. The area under the plasma concentration-time curve (AUC) from time 0 to 24 hours post-dose (AUC0-24h) was calculated."}, "[3]": {"tested_on": "patients with R/R MM harboring t (11;14)", "type": "in vivo, human", "conditions": "19 patients, 80, 160, 320 and 640 mg QD with dexamethasone, preliminary"}, "[4]": {"test": "Clinical study, PK of Compound 1 in combination with dexamethasone", "type": "in vivo, human", "conditions": "MM patients, 80 to 640 mg target doses", "procedure": "A dose escalation study is conducted to evaluate the safety and tolerability of Compound 1 in combination with dexamethasone and dexamethasone plus carfilzomib in patients with relapsed/refractory (R/R) multiple myeloma (MM) and t (11;14). Also, the corresponding maximum tolerated dose (MTD)/maximum assessed dose (MAD), recommended Phase 2 dose (RP2D) and pharmacokinetics for Compound 1 in the combination therapies are to be observed.\nCompound 1 plus dexamethasone: Patients with R/R MM and t (11;14) receive increasing doses of Compound 1 once daily with starting dose at 80 mg once daily, plus 40 mg of dexamethasone once weekly to determine the safety, tolerability, efficacy, and pharmacokinetics (PK). Upon completion of the dose-limiting toxicity (DLT) window (21 days) and depending on the number of evaluable patients and observed DLTs, the dose of Compound 1 may be de-escalated to 40 mg once daily, stay at 80 mg once daily, or be escalated to 160 mg once daily. Upon dose escalation to 160 mg once daily and provided there are no DLTs observed during the DLT window, the study may be conducted to escalate to a few higher dose levels (up to 640 mg once daily), or to insert some certain intermediate doses between 80 mg and 160 mg once daily."}, "[5]": {"conditions": "Dexamethasone 0.1 mg/kg p.o. QD"}, "[6]": {"conditions": "Compound 1 1.5 mg/kg + Dexamethasone 0.1 mg/kg p.o. QD"}, "[7]": {"conditions": "Compound 1 1.5 mg/kg + Dexamethasone 0.1 mg/kg"}, "[8]": {"conditions": "Compound 1 1.5 mg/kg + Dexamethasone 1 mg/kg p.o. QD"}, "[9]": {"conditions": "Compound 1 1.5 mg/kg + Dexamethasone 1 mg/kg"}, "[10]": {"conditions": "Compound 1 1.5 mg/kg p.o. QD, single agent"}, "[11]": {"conditions": "Compound 1 1.5 mg/kg p.o. QD, 1.5 mg/kg"}}, "note": "Where “and” joins values, the source holds several entries; their conditions need not be identical. Identical values can stand only once."}
{"smiles": "C[C@@H]1C[C@H]2[C@@H]3CCC4=CC(=O)C=C[C@]4(C)[C@@]3(F)[C@@H](O)C[C@]2(C)[C@@]1(O)C(=O)CO", "note": "[Dexamethasone]", "values": [{"measurement": "TGI (%) Day 17", "setting": "[1]; [5]", "result": 9, "unit": "%"}, {"measurement": "Tumor Volume (mm^3) (Mean ± SEM) Day 17", "setting": "[1]; [5]", "result": "1036.5 ± 88.8", "unit": "mm^3"}, {"measurement": "TGI (%) Day 17", "setting": "[1]; Dexamethasone 1 mg/kg p.o. QD", "result": 46, "unit": "%"}, {"measurement": "Tumor Volume (mm^3) (Mean ± SEM) Day 17", "setting": "[1]; Dexamethasone 1 mg/kg p.o. QD", "result": "696.0 ± 69.2", "unit": "mm^3"}]}
{"smiles": "CC(C)c1ccccc1[C@@H]1CCCN1C1CC2(CCN(c3ccc(C(=O)NS(=O)(=O)c4ccc(NCC5CCC(C)(O)CC5)c([N+](=O)[O-])c4)c(Oc4cnc5[nH]ccc5c4)c3)CC2)C1", "note": "(stereo partly drawn) [Compound 1, 2-((1H-pyrrolo[2,3-b]pyridin-5-yl)oxy)-N-((4-((((1r,4r)-4-hydroxy-4-methylcyclohexyl)methyl)amino)-3-nitrophenyl)sulfonyl)-4-(2-((S)-2-(2-isopropylphenyl)pyrrolidin-1-yl)-7-azaspiro[3.5]nonan-7-yl)benzamide]", "values": [{"measurement": "TGI (%) Day 17", "setting": "[1]; Compound 1 1.5 mg/kg p.o. QD", "result": 11, "unit": "%"}, {"measurement": "Tumor Volume (mm^3) (Mean ± SEM) Day 17", "setting": "[1]; Compound 1 1.5 mg/kg p.o. QD", "result": "1011.7 ± 103.8", "unit": "mm^3"}, {"measurement": "AUC0-24 h of Compound 1, Day 14", "setting": "[2]; [6]", "result": 107, "unit": "ng·h/mL"}, {"measurement": "Cmax of Compound 1, Day 14", "setting": "[2]; [6]", "result": 29.5, "unit": "ng/mL"}, {"measurement": "Individual animal's plasma concentration of Compound 1, 0 h post treatment", "setting": "[2]; [7]", "result": "BLOQ"}, {"measurement": "Individual animal's plasma concentration of Compound 1, 0.5 h post treatment", "setting": "[2]; [7]", "result": "4.02 ng/mL and 5.2 ng/mL and 3.67 ng/mL"}, {"measurement": "Individual animal's plasma concentration of Compound 1, 2 h post treatment", "setting": "[2]; [7]", "result": "36.7 ng/mL and 30.9 ng/mL and 20.8 ng/mL"}, {"measurement": "Individual animal's plasma concentration of Compound 1, 8 h post treatment", "setting": "[2]; [7]", "result": "3.18 ng/mL and 6.95 ng/mL and 3.59 ng/mL"}, {"measurement": "Individual animal's plasma concentration of Compound 1, 24 h post treatment", "setting": "[2]; [7]", "result": "BLOQ"}, {"measurement": "AUC0-24 h of Compound 1, Day 14", "setting": "[2]; [8]", "result": 179, "unit": "ng·h/mL"}, {"measurement": "Cmax of Compound 1, Day 14", "setting": "[2]; [8]", "result": 42.4, "unit": "ng/mL"}, {"measurement": "Individual animal's plasma concentration of Compound 1, 0 h post treatment", "setting": "[2]; [9]", "result": "BLOQ"}, {"measurement": "Individual animal's plasma concentration of Compound 1, 0.5 h post treatment", "setting": "[2]; [9]", "result": "14.4 ng/mL and 6.94 ng/mL and 9.04 ng/mL"}, {"measurement": "Individual animal's plasma concentration of Compound 1, 2 h post treatment", "setting": "[2]; [9]", "result": "54.9 ng/mL and 35.8 ng/mL and 36.4 ng/mL"}, {"measurement": "Individual animal's plasma concentration of Compound 1, 8 h post treatment", "setting": "[2]; [9]", "result": "5.15 ng/mL and 7.02 ng/mL and 5.05 ng/mL"}, {"measurement": "Individual animal's plasma concentration of Compound 1, 24 h post treatment", "setting": "[2]; [9]", "result": "BLOQ (2×) and 0.692 ng/mL"}, {"measurement": "AUC0-24 h of Compound 1, Day 14", "setting": "[2]; [10]", "result": 200, "unit": "ng·h/mL"}, {"measurement": "Cmax of Compound 1, Day 14", "setting": "[2]; [10]", "result": 55.8, "unit": "ng/mL"}, {"measurement": "exposure (AUC0-24h and Cmax) at steady state, single treatment group versus combo treatment", "setting": "[2]; Compound 1 1.5 mg/kg p.o. QD, with or without dexamethasone", "result": "consistent with that in combo treatment"}, {"measurement": "Individual animal's plasma concentration of Compound 1, 24 h post treatment", "setting": "[2]; Compound 1 1.5 mg/kg p.o. QD", "result": "BLOQ"}, {"measurement": "Individual animal's plasma concentration of Compound 1, 0 h post treatment", "setting": "[2]; [11]", "result": "1.09 ng/mL and BLOQ (2×)"}, {"measurement": "Individual animal's plasma concentration of Compound 1, 0.5 h post treatment", "setting": "[2]; [11]", "result": "8 ng/mL and 5.72 ng/mL and 9.29 ng/mL"}, {"measurement": "Individual animal's plasma concentration of Compound 1, 2 h post treatment", "setting": "[2]; [11]", "result": "62.8 ng/mL and 40.7 ng/mL and 63.9 ng/mL"}, {"measurement": "Individual animal's plasma concentration of Compound 1, 8 h post treatment", "setting": "[2]; [11]", "result": "9.97 ng/mL and 9.73 ng/mL and 5.81 ng/mL"}, {"measurement": "clinical activity / disease control", "setting": "[3]", "result": "demonstrated activity at tested dose levels, and most patients achieved disease control"}, {"measurement": "drug-drug-interaction (DDI) potential between dexamethasone and Compound 1", "setting": "[4]", "result": "low"}]}
